Values of other authors in US9854807B2, “Potentiation of fixed coppers and other pesticides containing copper and supplementing plant nutrition” (priority 2014, dated 2018).

Details: terms used by Richardson

[Cl-].[Cu+2].[Cu+2].[OH-].[OH-].[OH-] [Copper(2) Oxychloride]
solubility in water: essentially insoluble in water
